# Reference: PubChem BioAssay (NCI)
#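 Cells were grown in 96-well plates and exposed to each compound for 48 hours at five concentrations; endpoints were interpolated linearly between bracketing concentrations, or set to the highest concentration if not reached. The concentration for 50% growth inhibition is given as GI50. At the TGI there is no net growth.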
# What was measured:
# Assay in all cases: inhibition of tumour cell growth, NCI panel, 48 h
# OVCAR-4 ovarian = system: OVCAR-4 ovarian
# UACC-257 melanoma = system: UACC-257 melanoma
# OVCAR-8 ovarian = system: OVCAR-8 ovarian
# ACHN renal = system: ACHN renal
# EKVX NSCLC = system: EKVX NSCLC
# 786-0 renal = system: 786-0 renal
# HL-60(TB) leukemia = system: HL-60(TB) leukemia
# SF-539 CNS = system: SF-539 CNS
# SK-MEL-5 melanoma = system: SK-MEL-5 melanoma
# SN12C renal = system: SN12C renal
SMILES,GI50 (OVCAR-4 ovarian) [µM],TGI (OVCAR-4 ovarian) [µM],GI50 (UACC-257 melanoma) [µM],TGI (UACC-257 melanoma) [µM],GI50 (OVCAR-8 ovarian) [µM],TGI (OVCAR-8 ovarian) [µM],GI50 (ACHN renal) [µM],TGI (ACHN renal) [µM],GI50 (EKVX NSCLC) [µM],TGI (EKVX NSCLC) [µM],GI50 (786-0 renal) [µM],TGI (786-0 renal) [µM],GI50 (HL-60(TB) leukemia) [µM],TGI (HL-60(TB) leukemia) [µM],GI50 (SF-539 CNS) [µM],TGI (SF-539 CNS) [µM],GI50 (SK-MEL-5 melanoma) [µM],TGI (SK-MEL-5 melanoma) [µM],GI50 (SN12C renal) [µM],TGI (SN12C renal) [µM]
O=C(c1ccncc1)N1CCN(C2=NS(=O)(=O)c3ccccc3N2c2ccccc2)CC1,30.6,> 100,21.7,63.8,27.7,> 100,11.1,53.6,35,> 100,7.37,37.2,17.1,> 100,3.85,22.8,11.6,24.1,7.55,> 100
COc1ccc(CCN2COc3ccc4ccc(=O)oc4c3C2)cc1OC,,> 100,,> 100,,> 100,,> 100,,> 100,,> 100,,41.7,,> 100,,> 100,,> 100
Cc1cc(O)c(O)c(Oc2cc(C)cc(O)c2O)c1,,28.8,,> 100,,45.1,,79.9,,36.8,,55.5,,5.54,,> 100,,> 100,,59.7
